Measured values as given in patent US9987369B2, “Vitamin functionalized gel-forming block copolymers for biomedical applications” (INTERNATIONAL BUSINESS MACHINES CORPORATION, priority 2016, dated 2018).

Tests used:
C. albicans = assay: killing efficiency of solutions; type: cell-based, Candida albicans; conditions: solution, fluconazole at 5.0 mg/L
Method: A stock solution of cationic polymer VE/PrBr(1:15) (5 mg) in sterile HPLC grade water (10 mL) was prepared having a final concentration of 500 mg/L (500 ppm). A second stock solution of fluconazole (1 mg) in sterile HPLC grade water (100 mL) was prepared having a final concentration of 10 mg/L (10 ppm). Three solutions were prepared: (1) cationic polymer alone at 1.0MIC=250 mg/L (250 ppm) against C. albicans, (2) A cationic polymer/fluconazole solution containing VE/PrBr(1:15) at 0.5MIC=125 mg/L (125 ppm) against C. albicans and fluconazole at 2.5 mg/L (2.5 ppm), and (3) fluconazole alone at 5.0 mg/L (5 ppm). Formulation (2) was obtained by combining […] each of the stock solutions of cationic polymer and fluconazole and diluting the resulting solution with 750 microliters of sterile HPLC grade water.

P. aeruginosa = assay: killing efficiency / minimum bactericidal concentration; type: cell-based, Pseudomonas aeruginosa; conditions: single agent
Method: Procedure for hydrogels: E. coli, P. aeruginosa, S. aureus and C. albicans were obtained from ATCC and reconstituted from its lyophilized form according to the manufacturer's protocol. Bacterial samples were cultured in Tryptic Soy Broth (TSB) solution at 37° C. under constant shaking of 300 rpm. C. albicans was culture in yeast medium at room temperature under constant shaking of 70 rpm. Prior to treatment, the bacterial sample was first inoculated and cultured to enter into log growth phase. To prepare the antimicrobial hydrogels, cationic polymer was first dissolved in filtered HPLC water in a bio-hood. […] For instance, cationic polymer VE/BnCl(1:30) or cationic polymer VE/PrBr(1:30) was dissolved by using sterile HPLC grade water to form a polymer solution at various concentrations. This solution was then used to dissolve […]1.25 to form a 4 wt. % hydrogel containing various concentrations of the cationic polymers. […] The concentration of bacterial solution was adjusted to give an initial optical density (O.D.) reading of approximately 0.07 at 600 nm wavelength on a microplate reader (TECAN, Switzerland), which corresponds to the concentration of McFarland 1 solution (3×10^8 CFU/mL). […] The plates were incubated for 24 hours at 37° C. and the number of colony-forming units (CFU) was counted. […]

| Compound | killing efficiency against C. albicans (C. albicans) [%] | MBC against P. aeruginosa (P. aeruginosa) [µg/mL] |
| --- | --- | --- |
| OC(Cn1cncn1)(Cn1cncn1)c1ccc(F)cc1F [fluconazole, Fluconazole] | 93.53 |  |
| Doxycycline [DXY] |  | 20 to 30 |
